The values that follow come from patent US20180271873A1, “METHODS FOR TREATING VIRAL INFECTIONS” (priority 2015, published 2018).

pEC50: −log10 of the molar value. Where only a bound is given, the exact number is not on record here.

The assay concerns GFP-expressing Zaire Ebolavirus Mayinga-GFP. Briefly: microbe, parasite or virus in culture. Type of assay: cell-based. The conditions noted are these: HeLa, read-out: Activity (Biological activity, EC50).
On to `Cc1cccc(/C=N/Nc2cc(N3CCOCC3)nc(OCc3ncccn3)n2)c1` [Compound 5, (E)-4-(6-(2-(3-Methylbenzylidene)hydrazinyl)-2-(pyrimidin-2-ylmethoxy)pyrimidin-4-yl)morpholine], for which the pEC50 (as a rule, the EC50 on a negative log10 scale, so that one unit is a factor of ten) was greater than 6.00.

With `Cc1ccccc1/C=N/Nc1cc(N2CCOCC2)nc(OCCc2ccccn2)n1` [Compound 10, (E)-4-(6-(2-(2-Methylbenzylidene)hydrazinyl)-2-(2-(pyridin-2-yl)ethoxy)pyrimidin-4-yl)morpholine], the pEC50 was greater than 6.00.

Consider `Cc1cccc(/C=N/Nc2cc(N3CCOCC3)nc(OCCc3ccccn3)n2)c1` [Compound 11, (E)-4-(6-(2-(3-Methylbenzylidene)hydrazinyl)-2-(2-(pyridin-2-yl)ethoxy)pyrimidin-4-yl)morpholine], for which the pEC50 was greater than 6.00.

Consider `C(=N\Nc1cc(N2CCOCC2)nc(OCCc2ccccn2)n1)/c1cncnc1` [Compound 12, (E)-4-(2-(2-(Pyridin-2-yl)ethoxy)-6-(2-(pyrimidin-5-ylmethylene)hydrazinyl)pyrimidin-4-yl)morpholine], for which the pEC50 is less than 4.30.

For the molecule `Cc1cccc(/C=N/Nc2cc(N3CCOCC3)nc(OCC(C)c3ccccn3)n2)c1` (stereo not drawn) [Compound 13, (E)-4-(6-(2-(3-Methylbenzylidene)hydrazinyl)-2-(2-(pyridin-2-yl)propoxy)pyrimidin-4-yl)morpholine], the negative logarithm of the EC50 (pEC50) is greater than 6.00.

As for `Cc1cccc(/C=N/Nc2cc(N3CCOCC3)nc(OCCCc3ccccn3)n2)c1` [Compound 14, (E)-4-(6-(2-(3-Methylbenzylidene)hydrazinyl)-2-(3-(pyridin-2-yl)propoxy)pyrimidin-4-yl)morpholine], the pEC50 was greater than 6.00.

Consider `Cc1cccc(/C=N/Nc2cc(N3CCOCC3)nc(Oc3ccc4cccnc4c3)n2)c1` [Compound 15, (E)-4-(6-(2-(3-Methylbenzylidene)hydrazinyl)-2-(quinolin-7-yloxy)pyrimidin-4-yl)morpholine], for which the pEC50 was greater than 6.00.

As to `Cc1cccc(/C=N/Nc2cc(N3CCS(=O)(=O)CC3)nc(OCCc3ccccn3)n2)c1` [Compound 16], the negative-log EC50 (pEC50) was less than 4.30.

For the molecule `C(=N\Nc1cc(N2CCOCC2)nc(OCCc2ccccn2)n1)/c1ccncc1` [Compound 17, (E)-4-(2-(2-(Pyridin-2-yl)ethoxy)-6-(2-(pyridin-4-ylmethylene)hydrazinyl)pyrimidin-4-yl)morpholine], the negative-log EC50 (pEC50) is less than 4.30.

For `Cc1cccc(/C=N/Nc2cc(N3CCOCC3)nc(NCc3ccccn3)n2)c1` [Compound 18, (E)-4-(2-(3-Methylbenzylidene)hydrazinyl)-6-morpholino-N-(pyridin-2-ylmethyl)pyrimidin-2-amine], the negative-log EC50 (pEC50) was greater than 6.00.

Take `Cc1cc(/C=N/Nc2cc(N3CCOCC3)nc(OCCc3ccccn3)n2)ccn1` [Compound 19, (E)-4-(6-(2-((2-Methylpyridin-4-yl)methylene)hydrazinyl)-2-(2-(pyridin-2-yl)ethoxy)pyrimidin-4-yl)morpholine]: the pEC50 was less than 4.30.

`Cc1cccc(/C=N/Nc2cc(N3CCOCC3)nc(OCCc3ccccc3)n2)c1` [Compound 20, (E)-4-(6-(2-(3-Methylbenzylidene)hydrazinyl)-2-phenethoxypyrimidin-4-yl)morpholine]: the pEC50 is 4.30 to 6.00.

On to `Cc1cccc(/C=N/Nc2cc(N3CCCCC3)nc(OCCc3ccccn3)n2)c1` [Compound 21, (E)-4-(2-(3-Methylbenzylidene)hydrazinyl)-6-(piperidin-1-yl)-2-(2-(pyridin-2-yl)ethoxy)pyrimidine], for which the pEC50 was less than 4.30.

`Cc1cccc(/C=N/Nc2cc(N3CC(C)OC(C)C3)nc(OCCc3ccccn3)n2)c1` (stereo not drawn) [Compound 22, (E)-2,6-Dimethyl-4-(6-(2-(3-methylbenzylidene)hydrazinyl)-2-(2-(pyridin-2-yl)ethoxy)pyrimidin-4-yl)morpholine]: the pEC50 is 4.30 to 6.00.

On to `Cc1cccc(/C=N/Nc2cc(N3CCOCC3)nc(OCCc3ncccn3)n2)c1` [Compound 23, (E)-4-(6-(2-(3-Methylbenzylidene)hydrazinyl)-2-(2-(pyrimidin-2-yl)ethoxy)pyrimidin-4-yl)morpholine], for which the pEC50 is greater than 6.00.

For `CCCN(CCC)c1cc(N/N=C/c2cccc(C)c2)nc(OCCc2ncccn2)n1` [Compound 24, (E)-6-(2-(3-Methylbenzylidene)hydrazinyl)-N,N-dipropyl-2-(2-(pyrimidin-2-yl)ethoxy)pyrimidin-4-amine], the pEC50 is less than 4.30.

For the molecule `Cc1cccc(/C=N/Nc2cc(N3CCOCC3)nc(Oc3ccccn3)n2)c1` [Compound 25, (E)-4-(6-(2-(3-Methylbenzylidene)hydrazinyl)-2-(pyridin-2-yloxy)pyrimidin-4-yl)morpholine], the pEC50 was greater than 6.00.

Consider `Cc1cccc(/C=N/Nc2cc(N3CCSCC3)nc(OCCc3ccccn3)n2)c1` [Compound 26, (E)-4-(6-(2-(3-Methylbenzylidene)hydrazinyl)-2-(2-(pyridin-2-yl)ethoxy)pyrimidin-4-yl)thiomorpholine], for which the pEC50 is 4.30 to 6.00.

Regarding `Cc1cccc(/C=N/Nc2cc(N3CCOCC3)nc(-c3cccc(O)c3)n2)c1` [Compound 27, (E)-3-(4-(2-(3-Methylbenzylidene)hydrazinyl)-6-morpholinopyrimidin-2-yl)phenol], the pEC50 is 4.30 to 6.00.

Take `Cc1cccc(/C=N/Nc2cc(N3CCOCC3)nc(OC(C)Cc3ccccn3)n2)c1` (stereo not drawn) [Compound 28, (E)-4-(6-(2-(3-Methylbenzylidene)hydrazinyl)-2-(1-(pyridin-2-yl)propan-2-yloxy)pyrimidin-4-yl)morpholine]: the pEC50 is greater than 6.00.

As for `Cc1cccc(/C=N/Nc2cc(N3CCOCC3)nc(OCCc3ccncn3)n2)c1` [Compound 29, (E)-4-(6-(2-(3-Methylbenzylidene)hydrazinyl)-2-(2-(pyrimidin-4-yl)ethoxy)pyrimidin-4-yl)morpholine], the pEC50 was 4.30 to 6.00.

Turning to `Cc1cccc(/C=N/Nc2cc(N3CCOCC3)nc(-c3cccc(-c4ccccn4)c3)n2)c1` [Compound 30, (E)-4-(6-(2-(3-Methylbenzylidene)hydrazinyl)-2-(3-(pyridin-2-yl)phenyl)pyrimidin-4-yl)morpholine], the pEC50 is 4.30 to 6.00.

Turning to `COc1c(N/N=C/c2cccc(C)c2)nc(OCCc2ccccn2)nc1N1CCOCC1` [Compound 31, (E)-4-(5-Methoxy-6-(2-(3-methylbenzylidene)hydrazinyl)-2-(2-(pyridin-2-yl)ethoxy)pyrimidin-4-yl)morpholine], the pEC50 is 4.30 to 6.00.

In the case of `Cc1cccc(/C=N/Nc2nc(OCCc3ccccn3)nc(N3CCOCC3)c2C)c1` [Compound 32, (E)-4-(5-Methyl-6-(2-(3-methylbenzylidene)hydrazinyl)-2-(2-(pyridin-2-yl)ethoxy)pyrimidin-4-yl)morpholine], the pEC50 was 4.30 to 6.00.

With `FC(F)(F)c1cccc(/C=N/Nc2cc(N3CCOCC3)nc(OCCc3ccccn3)n2)c1` [Compound 33, (E)-4-(2-(2-(Pyridin-2-yl)ethoxy)-6-(2-(3-(trifluoromethyl)benzylidene)hydrazinyl)pyrimidin-4-yl)morpholine], the pEC50 is greater than 6.00.

For `C/C(=N\Nc1cc(N2CCOCC2)nc(OCCc2ccccn2)n1)c1cccc(C)c1` [Compound 34, (E)-4-(2-(2-(Pyridin-2-yl)ethoxy)-6-(2-(1-m-tolylethylidene)hydrazinyl)pyrimidin-4-yl)morpholine], the pEC50 is greater than 6.00.

For the molecule `Cc1cccc(/C=N/Nc2cc(N3CCCOCC3)nc(OCCc3ccccn3)n2)c1` [Compound 35, (E)-4-(6-(2-(3-Methylbenzylidene)hydrazinyl)-2-(2-(pyridin-2-yl)ethoxy)pyrimidin-4-yl)-1,4-oxazepane], the pEC50 was 4.30 to 6.00.

`Cc1cccc(/C=N/Nc2cc(N3CCOCC3)nc(OCC(C)(C)c3ccccc3)n2)c1` [Compound 36, (E)-4-(2-(2-Methyl-2-phenylpropoxy)-6-(2-(3-methylbenzylidene)hydrazinyl)pyrimidin-4-yl)morpholine]: the pEC50 was 4.30 to 6.00.

As for `Cc1cccc(/C=N/N(C)c2cc(N3CCOCC3)nc(OCCc3ccccn3)n2)c1` [Compound 37, (E)-4-(6-(1-Methyl-2-(3-methylbenzylidene)hydrazinyl)-2-(2-(pyridin-2-yl)ethoxy)pyrimidin-4-yl)morpholine], the pEC50 was 4.30 to 6.00.

Regarding `Cc1cccc(/C=N/Nc2nc(OCCc3ccccn3)nc(N3CCOCC3)c2C#N)c1` [Compound 38, (E)-4-(2-(3-Methylbenzylidene)hydrazinyl)-6-morpholino-2-(2-(pyridin-2-yl)ethoxy)pyrimidine-5-carbonitrile], the pEC50 was less than 4.30.

As to `Cc1cccc(/C=N/Nc2nc(OCCc3ccccn3)nc(N3CCOCC3)c2Cl)c1` [Compound 39, (E)-4-(5-Chloro-6-(2-(3-methylbenzylidene)hydrazinyl)-2-(2-(pyridin-2-yl)ethoxy)pyrimidin-4-yl)morpholine], the pEC50 is less than 4.30.

Regarding `Cc1cccc(/C=N/Nc2nc(OCCc3ccccn3)nc(N3CCOCC3)c2F)c1` [Compound 40, (E)-4-(5-Fluoro-6-(2-(3-methylbenzylidene)hydrazinyl)-2-(2-(pyridin-2-yl)ethoxy)pyrimidin-4-yl)morpholine], the pEC50 is less than 4.30.

Turning to `Cc1cccc(/C=N/Nc2cc(C3CCOCC3)nc(OCCc3ccccn3)n2)c1` [Compound 41, (E)-4-(2-(3-Methylbenzylidene)hydrazinyl)-2-(2-(pyridin-2-yl)ethoxy)-6-(tetrahydro-2H-pyran-4-yl)pyrimidine], the pEC50 was less than 4.30.

For the molecule `Cc1cccc(/C=N/Nc2cc(N3CCN(C)CC3)nc(OCCc3ccccn3)n2)c1` [Compound 42, (E)-4-(2-(3-Methylbenzylidene)hydrazinyl)-6-(4-methylpiperazin-1-yl)-2-(2-(pyridin-2-yl)ethoxy)pyrimidine], the pEC50 was less than 4.30.

On to `Cc1cccc(/C=N/Nc2cc(N3CCOCC3)nc(OCCc3ccc(N)nc3)n2)c1` [Compound 43, (E)-5-(2-(4-(2-(3-Methylbenzylidene)hydrazinyl)-6-morpholinopyrimidin-2-yloxy)ethyl)pyridin-2-amine], for which the pEC50 was less than 4.30.

Take `Cc1cccc(/C=N/Nc2cc(N3CCOCC3)nc(OCCc3cnccn3)n2)c1` [Compound 44, (E)-4-(6-(2-(3-Methylbenzylidene)hydrazinyl)-2-(2-(pyrazin-2-yl)ethoxy)pyrimidin-4-yl)morpholine]: the pEC50 is 4.30 to 6.00.
